pIC50: −log10 of the molar value.
The molecules below were run against T1, Recombinant human renin (Homo sapiens, UniProt P00797) (assay: In vitro enzymatic activity assay of renin inhibitors (fluorogenic peptide substrate)). Conditions: read-out: IC50 of Exemplified Compounds Against Renin.
T1 construct: isolate the active form (residues 67-406); made in house; host or cells: FreeStyle 293-F cells (transient expression of pcDNA3.1(+)/hREN)
T1 sequence (P00797 67-406): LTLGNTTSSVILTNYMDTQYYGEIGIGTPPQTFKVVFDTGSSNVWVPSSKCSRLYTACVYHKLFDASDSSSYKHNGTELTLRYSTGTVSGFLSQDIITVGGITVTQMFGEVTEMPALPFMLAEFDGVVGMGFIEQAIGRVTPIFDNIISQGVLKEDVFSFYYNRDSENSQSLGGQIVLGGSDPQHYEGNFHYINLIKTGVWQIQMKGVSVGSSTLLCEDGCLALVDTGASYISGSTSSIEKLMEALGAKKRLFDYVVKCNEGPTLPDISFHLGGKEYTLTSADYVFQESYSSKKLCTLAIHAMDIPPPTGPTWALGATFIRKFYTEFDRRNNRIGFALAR
Type: biochemical
In short: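 Enzyme: recombinant human renin, 3 nM final, 10 min compound pre-incubation at 37 °C; buffer 50 mM Hepes pH 7.4 with 0.1 mg/mL BSA or extra 2% BSA; 5% DMSO.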

`COCCCn1c([C@@H]2CCCN(C(=O)C[C@H](N)Cc3ccc(-c4ccc(NC(=O)CO)cc4)cc3)C2)nc2ccccc21` [Compound 198, N-(4′-((R)-2-Amino-4-((R)-3-(1-(3-methoxypropyl)-1H-benzo[d]imidazol-2-yl)piperidin-1-yl)-4-oxobutyl)biphenyl-4-yl)-2-hydroxyacetamide] and `COCCCn1c([C@@H]2CCCN(C(=O)C[C@H](N)Cc3ccc(-c4ccc(NC(=O)C(C)(C)O)cc4)cc3)C2)nc2ccccc21` [Compound 199, N-(4′-((R)-2-amino-4-((R)-3-(1-(3-methoxypropyl)-1H-benzo[d]imidazol-2-yl)piperidin-1-yl)-4-oxobutyl)biphenyl-4-yl)-2-hydroxy-2-methylpropanamide] cannot be ordered by pIC50: > 7.00 for the first, > 7.00 for the second.

`CCOc1nc(-c2ccc(C[C@@H](N)CC(=O)N3CCC[C@@H](c4nc5ccccc5n4CCCOC)C3)cc2)cs1` [Compound 200, (R)-3-amino-4-(4-(2-ethoxythiazol-4-yl)phenyl)-1-((R)-3-(1-(3-methoxypropyl)-1H-benzo[d]imidazol-2-yl)piperidin-1-yl)butan-1-one] and `COCCCn1c([C@@H]2CCCN(C(=O)C[C@H](N)Cc3ccc(-c4csc(OC)n4)cc3)C2)nc2ccccc21` [Compound 201, (R)-3-amino-1-((R)-3-(1-(3-methoxypropyl)-1H-benzo[d]imidazol-2-yl)piperidin-1-yl)-4-(4-(2-methoxythiazol-4-yl)phenyl)butan-1-one] cannot be ordered by pIC50: > 7.00 for the first, > 7.00 for the second.

First: COCCCn1c([C@@H]2CCCN(C(=O)C[C@H](N)Cc3ccc(-c4csc(C(C)C)n4)cc3)C2)nc2ccccc21 [Compound 202, (R)-3-amino-4-(4-(2-isopropylthiazol-4-yl)phenyl)-1-((R)-3-(1-(3-methoxypropyl)-1H-benzo[d]imidazol-2-yl)piperidin-1-yl)butan-1-one]
Second: COCCCn1c([C@@H]2CCCN(C(=O)C[C@H](N)Cc3ccc(-c4cnc(C)n4C)cc3)C2)nc2ccccc21 [Compound 204, (R)-3-amino-4-(4-(1,2-dimethyl-1H-imidazol-5-yl)phenyl)-1-((R)-3-(1-(3-methoxypropyl)-1H-benzo[d]imidazol-2-yl)piperidin-1-yl)butan-1-one]
The pIC50 of the first is higher: > 7.00 for the first, 6.00 to 7.00 for the second.

Compared with `COCCCn1c([C@@H]2CCCN(C(=O)C[C@H](N)Cc3ccc(C(=O)NC4CCCCC4)cc3)C2)nc2ccccc21` [Compound 203, 4-((R)-2-amino-4-((R)-3-(1-(3-methoxypropyl)-1H-benzo[d]imidazol-2-yl)piperidin-1-yl)-4-oxobutyl)-N-cyclohexylbenzamide], `COCCCn1c([C@@H]2CCCN(C(=O)C[C@H](N)Cc3ccc(N4CCC(O)CC4)cc3)C2)nc2ccccc21` [Compound 234, (R)-3-amino-4-(4-(4-hydroxypiperidin-1-yl)phenyl)-1-((R)-3-(1-(3-methoxypropyl)-1H-benzo[d]imidazol-2-yl)piperidin-1-yl)butan-1-one] is lower in pIC50: 6.00 to 7.00 for the first, < 6.00 for the second.

Compared with `COCCCn1c([C@@H]2CCCN(C(=O)C[C@H](N)Cc3ccc(-c4cn(C)c(=O)n(C)c4=O)cc3)C2)nc2ccccc21` [Compound 205, 5-(4-((R)-2-amino-4-((R)-3-(1-(3-methoxypropyl)-1H-benzo[d]imidazol-2-yl)piperidin-1-yl)-4-oxobutyl)phenyl)-1,3-dimethylpyrimidine-2,4(1H,3H)-dione], `COCCCn1c([C@@H]2CCCN(C(=O)C[C@H](N)Cc3ccc(-n4ccc(=O)n(C)c4=O)cc3)C2)nc2ccccc21` [Compound 210, 1-(4-((R)-2-amino-4-((R)-3-(1-(3-methoxypropyl)-1H-benzo[d]imidazol-2-yl)piperidin-1-yl)-4-oxobutyl)phenyl)-3-methylpyrimidine-2,4(1H,3H)-dione] is lower in pIC50: > 7.00 for the first, 6.00 to 7.00 for the second.

`COCCCn1c([C@@H]2CCCN(C(=O)C[C@H](N)Cc3ccc(-c4ccc(-n5c(C)n[nH]c5=O)cc4)cc3)C2)nc2ccccc21` [Compound 206, 4-(4′-((R)-2-amino-4-((R)-3-(1-(3-methoxypropyl)-1H-benzo[d]imidazol-2-yl)piperidin-1-yl)-4-oxobutyl)biphenyl-4-yl)-3-methyl-1H-1,2,4-triazol-5(4H)-one] and `COCCCn1c([C@@H]2CCCN(C(=O)C[C@H](N)Cc3ccc(-n4c(=O)[nH]c5ccccc54)cc3)C2)nc2ccccc21` [Compound 212] cannot be ordered by pIC50: > 7.00 for the first, > 7.00 for the second.

First: COCCCn1c([C@@H]2CCCN(C(=O)C[C@H](N)Cc3ccc(-n4ccccc4=O)cc3)C2)nc2ccccc21 [Compound 207]
Second: COCCCn1c([C@@H]2CCCN(C(=O)C[C@H](N)Cc3ccc(-n4ccc5ccccc5c4=O)cc3)C2)nc2ccccc21 [Compound 229, 2-(4-((R)-2-amino-4-((R)-3-(1-(3-methoxypropyl)-1H-benzo[d]imidazol-2-yl)piperidin-1-yl)-4-oxobutyl)phenyl)isoquinolin-1(2H)-one]
The pIC50 of the first is lower: 6.00 to 7.00 for the first, > 7.00 for the second.

First: COCCCn1c([C@@H]2CCCN(C(=O)C[C@H](N)Cc3ccc(-n4ccnc4)cc3)C2)nc2ccccc21 [Compound 208, (R)-4-(4-(1H-imidazol-1-yl)phenyl)-3-amino-1-((R)-3-(1-(3-methoxypropyl)-1H-benzo[d]imidazol-2-yl)piperidin-1-yl)butan-1-one]
Second: COCCCn1c([C@@H]2CCCN(C(=O)C[C@H](N)Cc3ccc(N4CCCC4=O)cc3)C2)nc2ccccc21 [Compound 209, 1-(4-((R)-2-amino-4-((R)-3-(1-(3-methoxypropyl)-1H-benzo[d]imidazol-2-yl)piperidin-1-yl)-4-oxobutyl)phenyl)pyrrolidin-2-one]
The pIC50 of the first is higher: > 7.00 for the first, 6.00 to 7.00 for the second.

`COCCCn1c([C@@H]2CCCN(C(=O)C[C@H](N)Cc3ccc(-n4c(=O)oc5ccccc54)cc3)C2)nc2ccccc21` [Compound 211] and `COCCCn1c([C@@H]2CCCN(C(=O)C[C@H](N)Cc3ccc(-n4c(=O)n(C)c5ccccc54)cc3)C2)nc2ccccc21` [Compound 220, 1-(4-((R)-2-amino-4-((R)-3-(1-(3-methoxypropyl)-1H-benzo[d]imidazol-2-yl)piperidin-1-yl)-4-oxobutyl)phenyl)-3-methyl-1H-benzo[d]imidazol-2(3H)-one] cannot be ordered by pIC50: > 7.00 for the first, > 7.00 for the second.

`COCCCn1c([C@@H]2CCCN(C(=O)C[C@H](N)Cc3ccc(N4CCOCC4=O)cc3)C2)nc2ccccc21` [Compound 213] and `COCCCn1c([C@@H]2CCCN(C(=O)C[C@H](N)Cc3ccc(N4CCN(c5ccccc5)C(=O)C4)cc3)C2)nc2ccccc21` [Compound 233, 4-(4-((R)-2-amino-4-((R)-3-(1-(3-methoxypropyl)-1H-benzo[d]imidazol-2-yl)piperidin-1-yl)-4-oxobutyl)phenyl)-1-phenylpiperazin-2-one] fall in the same range of pIC50: 6.00 to 7.00 for the first, 6.00 to 7.00 for the second.

`COCCCn1c([C@@H]2CCCN(C(=O)C[C@H](N)Cc3ccc(-n4c(=O)n(CCOC)c5ccccc54)cc3)C2)nc2ccccc21` [Compound 214, 1-(4-((R)-2-amino-4-((R)-3-(1-(3-methoxypropyl)-1H-benzo[d]imidazol-2-yl)piperidin-1-yl)-4-oxobutyl)phenyl)-3-(2-methoxyethyl)-1H-benzo[d]imidazol-2(3H)-one] and `CCCn1c(=O)n(-c2ccc(C[C@@H](N)CC(=O)N3CCC[C@@H](c4nc5ccccc5n4CCCOC)C3)cc2)c2ccccc21` [Compound 221, 1-(4-((R)-2-amino-4-((R)-3-(1-(3-methoxypropyl)-1H-benzo[d]imidazol-2-yl)piperidin-1-yl)-4-oxobutyl)phenyl)-3-propyl-1H-benzo[d]imidazol-2(3H)-one] cannot be ordered by pIC50: > 7.00 for the first, > 7.00 for the second.

`COCCCn1c([C@@H]2CCCN(C(=O)C[C@H](N)Cc3ccc(-n4c(=O)[nH]c5cc(C)c(C)cc54)cc3)C2)nc2ccccc21` [Compound 219, 1-(4-((R)-2-amino-4-((R)-3-(1-(3-methoxypropyl)-1H-benzo[d]imidazol-2-yl)piperidin-1-yl)-4-oxobutyl)phenyl)-5,6-dimethyl-1H-benzo[d]imidazol-2(3H)-one] and `COCCCn1c([C@@H]2CCCN(C(=O)C[C@H](N)Cc3ccc(-n4c(=O)n(CCO)c5ccccc54)cc3)C2)nc2ccccc21` [Compound 222, 1-(4-((R)-2-amino-4-((R)-3-(1-(3-methoxypropyl)-1H-benzo[d]imidazol-2-yl)piperidin-1-yl)-4-oxobutyl)phenyl)-3-(2-hydroxyethyl)-1H-benzo[d]imidazol-2(3H)-one] cannot be ordered by pIC50: > 7.00 for the first, > 7.00 for the second.

`COCCCn1c([C@@H]2CCCN(C(=O)C[C@H](N)Cc3ccc(N4CCN(c5ccccc5)CC4)cc3)C2)nc2ccccc21` [Compound 231, (R)-3-amino-1((R)-3-(1-(3-methoxypropyl)-1H-benzo[d]imidazol-2-yl)piperidin-1-yl)-4-(4-(4-phenylpiperazin-1-yl)phenyl)butan-1-one] and `COCCCn1c([C@@H]2CCCN(C(=O)C[C@H](N)Cc3ccc(N4CCN(C(C)=O)CC4)cc3)C2)nc2ccccc21` [Compound 232, (R)-4-(4-(4-acetylpiperazin-1-yl)phenyl)-3-amino-1-((R)-3-(1-(3-methoxypropyl)-1H-benzo[d]imidazol-2-yl)piperidin-1-yl)butan-1-one] fall in the same range of pIC50: 6.00 to 7.00 for the first, 6.00 to 7.00 for the second.

For `COCCCn1c([C@@H]2CCCN(C(=O)C[C@H](N)Cc3ccc(N4CCC(CO)CC4)cc3)C2)nc2ccccc21` [Compound 235, (R)-3-amino-4-(4-(4-(hydroxymethyl)piperidin-1-yl)phenyl)-1-((R)-3-(1-(3-methoxypropyl)-1H-benzo[d]imidazol-2-yl)piperidin-1-yl)butan-1-one], the pIC50 was 6.00 to 7.00.
